Test [1] concerns the target T1, human GLP-1 receptor (Homo sapiens, UniProt P43220).
T1 construct: expressed in transfected cells; host or cells: BHK cells (parent line BHKTS13), clone FCW467-12A; membrane preparation
Description: In vitro potency: CRE luciferase reporter gene assay in BHK cells expressing the human GLP-1 receptor. The format is cell-based. The method, boiled down:
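Whole-cell assay in stably transfected BHK cells carrying CRE-driven firefly luciferase, 5×10^3 cells/well, in assay buffer with 2% ovalbumin and 0.2% Pluronic F-68. Compound working solutions were 0.2 μM.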
A general note: A reporter such as luciferase makes a cellular process visible.

Test [2] deals with T1, human GLP-1 receptor. The test is described as follows: GLP-1 receptor binding: competitive binding assay (125I-GLP-1, SPA) on isolated membranes at low and high HSA.
Setting [3] is: whole cell reporter gene assay, BHK cells, human GLP-1 receptor, average of at least two replicates, read-out: EC50.
[4] abbreviates: low HSA (max. 0.001% final assay concentration), read-out: Low HSA IC50.
The mark [5] stands for this setting: high HSA (2.0% final assay concentration), read-out: High HSA IC50.
Where [6] appears, read: Low HSA IC50, low HSA (max. 0.001% final assay concentration).

SMILES strings stand for the structures. pEC50, pIC50: −log10 of the molar value. Read-outs that look alike come from different tables or passages of the source.

Here are results for 4 compounds from patent publication US11572398B2, “GLP-1 derivatives and uses thereof” (Novo Nordisk A/S, priority 2014, dated 2023).

T1 sequence (P43220 24-463): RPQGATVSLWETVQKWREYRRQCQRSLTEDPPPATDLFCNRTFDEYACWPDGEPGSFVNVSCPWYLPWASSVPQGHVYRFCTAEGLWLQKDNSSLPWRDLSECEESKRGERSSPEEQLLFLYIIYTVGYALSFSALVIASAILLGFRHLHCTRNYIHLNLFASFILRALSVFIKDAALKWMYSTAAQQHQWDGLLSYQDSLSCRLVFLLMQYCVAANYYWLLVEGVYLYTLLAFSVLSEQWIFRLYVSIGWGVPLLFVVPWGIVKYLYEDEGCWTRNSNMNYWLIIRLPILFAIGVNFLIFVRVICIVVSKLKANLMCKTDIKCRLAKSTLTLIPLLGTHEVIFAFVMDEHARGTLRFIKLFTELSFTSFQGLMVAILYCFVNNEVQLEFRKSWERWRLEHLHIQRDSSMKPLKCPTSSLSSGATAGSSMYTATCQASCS

Regarding `CC[C@H](C)[C@H](NC(=O)[C@H](Cc1ccccc1)NC(=O)[C@H](CCC(=O)O)NC(=O)[C@H](CCCNC(=N)N)NC(=O)[C@H](C)NC(=O)[C@H](C)NC(=O)[C@H](CCC(N)=O)NC(=O)[C@H](CCC(=O)O)NC(=O)[C@H](CCC(=O)O)NC(=O)[C@H](CC(C)C)NC(=O)[C@H](Cc1ccc(O)cc1)NC(=O)[C@H](CO)NC(=O)[C@H](CO)NC(=O)[C@@H](NC(=O)[C@H](CC(=O)O)NC(=O)[C@H](CO)NC(=O)[C@@H](NC(=O)[C@H](Cc1ccccc1)NC(=O)[C@@H](NC(=O)CNC(=O)[C@H](CCC(=O)O)NC(=O)C(C)(C)NC(=O)[C@@H](N)Cc1c[nH]cn1)[C@@H](C)O)[C@@H](C)O)C(C)C)C(=O)N[C@@H](C)C(=O)N[C@@H](Cc1c[nH]c2ccccc12)C(=O)N[C@@H](CC(C)C)C(=O)N[C@H](C(=O)N[C@@H](CCCNC(=N)N)C(=O)NCC(=O)N[C@@H](CCCNC(=N)N)C(=O)N[C@@H](CCCCNC(=O)CN(CCCNC(=O)COCCOCCNC(=O)COCCOCCNC(=O)COCCOCCNC(=O)COCCOCCNC(=O)[C@@H](N)CCCCNC(=O)[C@@H](N)CCCCNC(=O)CCCNC(=O)CCCCCCCCCCCCCCCS(=O)(=O)O)CCCNC(=O)COCCOCCNC(=O)COCCOCCNC(=O)COCCOCCNC(=O)COCCOCCNC(=O)[C@@H](N)CCCCNC(=O)[C@@H](N)CCCCNC(=O)CCCNC(=O)CCCCCCCCCCCCCCCS(=O)(=O)O)C(=O)O)C(C)C` [Example 14, N{Epsilon-37}-[2-[bis[3-[[2-[2-[2-[[2-[2-[2-[[2-[2-[2-[[2-[2-[2-[[(2S)-2-amino-6-[[(2S)-2-amino-6-[4-(16-sulfohexadecanoylamino)butanoylamino]hexanoyl]amino]hexanoyl]amino]ethoxy]ethoxy]acetyl]amino]ethoxy]ethoxy]acetyl]amino]ethoxy]ethoxy]acetyl]amino]ethoxy]ethoxy]acetyl]amino]propyl]amino]acetyl]-[Aib8,Glu22,Arg26,Arg34,Lys37]-GLP-1-(7-37)-peptide], the pEC50 (commonly the EC50 on a negative log10 scale, so that one unit is a factor of ten) on human GLP-1 receptor [1] (setting [3]) is 11.20. The negative-log IC50 (pIC50) (as a rule, the IC50 on a negative log10 scale, so that one unit is a factor of ten) on human GLP-1 receptor [2] (setting [4]) is 10.40.

On to `CC[C@H](C)[C@H](NC(=O)[C@H](Cc1ccccc1)NC(=O)[C@H](CCC(=O)O)NC(=O)[C@H](CCCNC(=N)N)NC(=O)[C@H](C)NC(=O)[C@H](C)NC(=O)[C@H](CCC(N)=O)NC(=O)[C@H](CCC(=O)O)NC(=O)[C@H](CCC(=O)O)NC(=O)[C@H](CC(C)C)NC(=O)[C@H](Cc1ccc(O)cc1)NC(=O)[C@H](CO)NC(=O)[C@H](CO)NC(=O)[C@@H](NC(=O)[C@H](CC(=O)O)NC(=O)[C@H](CO)NC(=O)[C@@H](NC(=O)[C@H](Cc1ccccc1)NC(=O)[C@@H](NC(=O)CNC(=O)[C@H](CCC(=O)O)NC(=O)C(C)(C)NC(=O)[C@@H](N)Cc1c[nH]cn1)[C@@H](C)O)[C@@H](C)O)C(C)C)C(=O)N[C@@H](C)C(=O)N[C@@H](Cc1c[nH]c2ccccc12)C(=O)N[C@@H](CC(C)C)C(=O)N[C@H](C(=O)N[C@@H](CCCNC(=N)N)C(=O)NCC(=O)N[C@@H](CCCNC(=N)N)C(=O)N[C@@H](CCCCNC(=O)CN(CCCNC(=O)COCCOCCNC(=O)COCCOCCNC(=O)COCCOCCNC(=O)COCCOCCNC(=O)CC[C@H](NC(=O)CCCNC(=O)CCCCCCCCCCCCCCCS(=O)(=O)O)C(=O)O)CCCNC(=O)COCCOCCNC(=O)COCCOCCNC(=O)COCCOCCNC(=O)COCCOCCNC(=O)CC[C@H](NC(=O)CCCNC(=O)CCCCCCCCCCCCCCCS(=O)(=O)O)C(=O)O)C(=O)O)C(C)C` [Example 16, N{Epsilon-37}-[2-[bis[3-[[2-[2-[2-[[2-[2-[2-[[2-[2-[2-[[2-[2-[2-[[(4S)-4-carboxy-4-[4-(16-sulfohexadecanoylamino)butanoylamino]butanoyl]amino]ethoxy]ethoxy]acetyl]amino]ethoxy]ethoxy]acetyl]amino]ethoxy]ethoxy]acetyl]amino]ethoxy]ethoxy]acetyl]amino]propyl]amino]acetyl]-[Aib8,Glu22,Arg26,Arg34,Lys37]-GLP-1-(7-37)-peptide], for which the negative logarithm of the EC50 (pEC50) at human GLP-1 receptor [1] (setting [3]) is 11.77. The pIC50 is 8.48 on human GLP-1 receptor [2] (setting [5]) and 10.00 at human GLP-1 receptor [2] (setting [4]).

Consider `CC[C@H](C)[C@H](NC(=O)[C@H](Cc1ccccc1)NC(=O)[C@H](CCC(=O)O)NC(=O)[C@H](CCCNC(=N)N)NC(=O)[C@H](C)NC(=O)[C@H](C)NC(=O)[C@H](CCC(N)=O)NC(=O)[C@H](CCC(=O)O)NC(=O)[C@H](CCC(=O)O)NC(=O)[C@H](CC(C)C)NC(=O)[C@H](Cc1ccc(O)cc1)NC(=O)[C@H](CO)NC(=O)[C@H](CO)NC(=O)[C@@H](NC(=O)[C@H](CC(=O)O)NC(=O)[C@H](CO)NC(=O)[C@@H](NC(=O)[C@H](Cc1ccccc1)NC(=O)[C@@H](NC(=O)CNC(=O)[C@H](CCC(=O)O)NC(=O)C(C)(C)NC(=O)[C@@H](N)Cc1c[nH]cn1)[C@@H](C)O)[C@@H](C)O)C(C)C)C(=O)N[C@@H](C)C(=O)N[C@@H](Cc1c[nH]c2ccccc12)C(=O)N[C@@H](CC(C)C)C(=O)N[C@H](C(=O)N[C@@H](CCCNC(=N)N)C(=O)NCC(=O)N[C@@H](CCCNC(=N)N)C(=O)N[C@@H](CCCCNC(=O)CN(CCCNC(=O)COCCOCCNC(=O)COCCOCCNC(=O)COCCOCCNC(=O)COCCOCCNC(=O)CC[C@H](NC(=O)[C@H]1CC[C@H](CNC(=O)CCCNC(=O)CCCCCCCCCCCCCCCS(=O)(=O)O)CC1)C(=O)O)CCCNC(=O)COCCOCCNC(=O)COCCOCCNC(=O)COCCOCCNC(=O)COCCOCCNC(=O)CC[C@H](NC(=O)[C@H]1CC[C@H](CNC(=O)CCCNC(=O)CCCCCCCCCCCCCCCS(=O)(=O)O)CC1)C(=O)O)C(=O)O)C(C)C` [Example 19, N{Epsilon-37}-[2-[bis[3-[[2-[2-[2-[[2-[2-[2-[[2-[2-[2-[[2-[2-[2-[[(4S)-4-carboxy-4-[[4-[[4-(16-sulfohexadecanoylamino)butanoylamino]methyl]cyclohexanecarbonyl]amino]butanoyl]amino]ethoxy]ethoxy]acetyl]amino]ethoxy]ethoxy]acetyl]amino]ethoxy]ethoxy]acetyl]amino]ethoxy]ethoxy]acetyl]amino]propyl]amino]acetyl]-[Aib8,Glu22,Arg26,Arg34,Lys37]-GLP-1-(7-37)-peptide], for which the pEC50 at human GLP-1 receptor [1] (setting [3]) is 11.85. Also, the negative logarithm of the IC50 (pIC50) on human GLP-1 receptor [2] (setting [6]) was 9.82; at human GLP-1 receptor [2] (setting [5]) it was 7.38.

As for `CC[C@H](C)[C@H](NC(=O)[C@H](Cc1ccccc1)NC(=O)[C@H](CCC(=O)O)NC(=O)[C@H](CCCNC(=N)N)NC(=O)[C@H](C)NC(=O)[C@H](C)NC(=O)[C@H](CCC(N)=O)NC(=O)[C@H](CCC(=O)O)NC(=O)[C@H](CCC(=O)O)NC(=O)[C@H](CC(C)C)NC(=O)[C@H](Cc1ccc(O)cc1)NC(=O)[C@H](CO)NC(=O)[C@H](CO)NC(=O)[C@@H](NC(=O)[C@H](CC(=O)O)NC(=O)[C@H](CO)NC(=O)[C@@H](NC(=O)[C@H](Cc1ccccc1)NC(=O)[C@@H](NC(=O)CNC(=O)[C@H](CCC(=O)O)NC(=O)C(C)(C)NC(=O)[C@@H](N)Cc1c[nH]cn1)[C@@H](C)O)[C@@H](C)O)C(C)C)C(=O)N[C@@H](C)C(=O)N[C@@H](Cc1c[nH]c2ccccc12)C(=O)N[C@@H](CC(C)C)C(=O)N[C@H](C(=O)N[C@@H](CCCNC(=N)N)C(=O)NCC(=O)N[C@@H](CCCNC(=N)N)C(=O)N[C@@H](CCCCNC(=O)CN(CCCNC(=O)COCCOCCNC(=O)COCCOCCNC(=O)COCCOCCNC(=O)COCCOCCNC(=O)COCCOCCNC(=O)COCCOCCNC(=O)[C@@H](N)CCCCNC(=O)[C@@H](N)CCCCNC(=O)CCCNC(=O)CCCCCCCCCCCCCCCS(=O)(=O)O)CCCNC(=O)COCCOCCNC(=O)COCCOCCNC(=O)COCCOCCNC(=O)COCCOCCNC(=O)COCCOCCNC(=O)COCCOCCNC(=O)[C@@H](N)CCCCNC(=O)[C@@H](N)CCCCNC(=O)CCCNC(=O)CCCCCCCCCCCCCCCS(=O)(=O)O)C(=O)O)C(C)C` [Example 15], the pEC50 on human GLP-1 receptor [1] was 11.25. Moreover, the pIC50 on human GLP-1 receptor [2] (High HSA IC50, high HSA (2.0% final assay concentration)) was 8.47; at human GLP-1 receptor [2] (setting [6]), 10.30.
